{
  "source": "ChEMBL document CHEMBL1201862",
  "about": "“PubChem BioAssay data set” (2004)",
  "key": {"[1]": {"target": "Genome polyprotein (dengue virus type 2, UniProt P29990)", "sequence (P29990 2492-3391 limits assumed)": "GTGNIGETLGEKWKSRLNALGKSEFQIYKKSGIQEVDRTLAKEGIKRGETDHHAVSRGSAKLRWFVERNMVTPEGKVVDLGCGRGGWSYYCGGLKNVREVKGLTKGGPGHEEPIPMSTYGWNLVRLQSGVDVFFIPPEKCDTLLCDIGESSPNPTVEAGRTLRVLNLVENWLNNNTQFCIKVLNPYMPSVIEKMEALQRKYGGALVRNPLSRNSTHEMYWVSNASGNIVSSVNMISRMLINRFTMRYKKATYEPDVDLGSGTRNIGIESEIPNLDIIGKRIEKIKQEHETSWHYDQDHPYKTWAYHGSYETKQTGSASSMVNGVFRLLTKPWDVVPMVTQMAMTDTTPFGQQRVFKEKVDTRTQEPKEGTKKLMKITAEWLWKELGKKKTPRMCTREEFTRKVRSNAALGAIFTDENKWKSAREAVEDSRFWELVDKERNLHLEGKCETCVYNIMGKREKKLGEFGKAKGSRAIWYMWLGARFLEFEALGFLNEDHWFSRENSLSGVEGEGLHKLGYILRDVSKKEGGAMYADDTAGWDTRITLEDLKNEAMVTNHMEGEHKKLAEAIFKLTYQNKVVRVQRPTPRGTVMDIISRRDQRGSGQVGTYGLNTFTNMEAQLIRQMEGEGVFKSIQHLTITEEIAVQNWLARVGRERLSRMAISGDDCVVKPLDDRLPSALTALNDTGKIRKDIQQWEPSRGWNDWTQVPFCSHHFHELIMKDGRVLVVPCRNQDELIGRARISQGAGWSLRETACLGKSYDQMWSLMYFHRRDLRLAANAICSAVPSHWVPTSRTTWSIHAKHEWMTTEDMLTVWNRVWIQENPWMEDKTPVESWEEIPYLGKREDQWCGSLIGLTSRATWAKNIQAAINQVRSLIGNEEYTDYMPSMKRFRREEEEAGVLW", "assay": "flavivirus cap methylation enzyme inhibition – biochemical, confirmation dose response, primary screen (AID 588689)", "format": "functional"}, "[2]": {"target": "T1, Heat shock factor protein 1 (Mus musculus, UniProt P38532)", "T1 sequence (P38532 whole entry)": "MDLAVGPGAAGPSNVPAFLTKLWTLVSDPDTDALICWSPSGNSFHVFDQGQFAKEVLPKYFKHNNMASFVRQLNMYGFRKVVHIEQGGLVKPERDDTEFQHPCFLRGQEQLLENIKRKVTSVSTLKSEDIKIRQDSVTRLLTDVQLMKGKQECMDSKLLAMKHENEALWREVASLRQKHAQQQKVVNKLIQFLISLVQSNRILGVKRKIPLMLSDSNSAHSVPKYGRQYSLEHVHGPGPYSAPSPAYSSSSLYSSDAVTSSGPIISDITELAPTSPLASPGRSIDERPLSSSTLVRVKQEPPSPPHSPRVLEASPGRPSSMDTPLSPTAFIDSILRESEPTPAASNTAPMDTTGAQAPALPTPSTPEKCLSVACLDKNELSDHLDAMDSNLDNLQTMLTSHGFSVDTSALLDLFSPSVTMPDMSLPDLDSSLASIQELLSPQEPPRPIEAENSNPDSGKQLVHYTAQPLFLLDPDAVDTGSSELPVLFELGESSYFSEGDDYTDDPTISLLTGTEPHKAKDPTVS", "assay": "enhancement of HSF1-driven luciferase signal – cell-based, NIH3T3, luminescence, dose retest, confirmation (AID 435004);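 also: stress induced by proteasome inhibitor MG132 added 30 min after compound; actives raise luminescence as potentiators of the MG132 stress response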", "format": "functional"}, "[3]": {"target": "T2, Corticotropin-releasing factor receptor 2/Corticotropin-releasing factor-binding protein (Homo sapiens, UniProt P24387+Q13324)", "T2 sequence (Q13324 whole entry)": "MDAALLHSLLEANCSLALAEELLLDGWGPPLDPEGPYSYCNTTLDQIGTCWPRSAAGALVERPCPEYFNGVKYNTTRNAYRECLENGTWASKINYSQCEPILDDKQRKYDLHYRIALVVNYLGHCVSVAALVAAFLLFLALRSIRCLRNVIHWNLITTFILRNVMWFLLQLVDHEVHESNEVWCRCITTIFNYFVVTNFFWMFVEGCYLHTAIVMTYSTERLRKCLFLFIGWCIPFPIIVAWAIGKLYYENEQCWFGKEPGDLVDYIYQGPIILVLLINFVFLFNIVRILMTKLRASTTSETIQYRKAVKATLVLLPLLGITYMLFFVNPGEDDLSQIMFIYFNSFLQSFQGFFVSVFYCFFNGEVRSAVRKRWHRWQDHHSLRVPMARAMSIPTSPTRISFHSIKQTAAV", "T2 sequence (P24387 whole entry)": "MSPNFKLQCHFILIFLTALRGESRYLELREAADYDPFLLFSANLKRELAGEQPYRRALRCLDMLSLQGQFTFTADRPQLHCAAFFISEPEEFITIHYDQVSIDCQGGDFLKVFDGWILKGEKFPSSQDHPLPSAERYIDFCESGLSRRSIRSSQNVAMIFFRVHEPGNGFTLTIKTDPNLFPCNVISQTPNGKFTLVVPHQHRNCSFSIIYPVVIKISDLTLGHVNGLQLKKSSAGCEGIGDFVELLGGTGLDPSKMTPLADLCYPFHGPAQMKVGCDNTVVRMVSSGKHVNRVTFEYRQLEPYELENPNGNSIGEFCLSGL", "assay": "activators of CRF receptor 2 with binding protein – uHTS hits, confirmation (AID 602473)", "format": "functional", "conditions": "read-out: EC50_Mean"}, "[4]": {"assay": "reduction of Shn3 3'UTR-driven luciferase in osteoblasts – cell-based, Clone20 osteoblasts, firefly luciferase, cherry-picked, dose response (AID 624132);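 also: firefly luciferase luminescence from reporter carrying the Shn3 3'UTR in osteoblasts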", "format": "functional"}, "[5]": {"assay": "NIH-3T3 fibroblast cytotoxicity, dose response, cytotoxicity control, cell-based, fluorescence, Alamar Blue, secondary assay (AID 2327);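 also: NIH-3T3 mouse fibroblasts cultured with fluconazole at 8 µg/mL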", "format": "functional"}, "[6]": {"assay": "cells", "format": "functional, cell-based"}, "[7]": {"assay": "Trypanosoma cruzi growth suppression in host cells – NIH3T3 host cells, beta-gal luminescence, confirmation (AID 2044);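 also: intracellular parasites grown in NIH/3T3 mouse fibroblasts as host cells; luminescent beta-galactosidase reporter signal from transgenic T. cruzi replicating inside host cells; inhibitors lower the luminescence signal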", "format": "functional, cell-based"}, "[8]": {"assay": "fluconazole-exposed Candida albicans growth modulators – fluorescence, retest, confirmation (AID 2467)", "format": "functional, cell-based"}, "[9]": {"system": "INS1", "assay": "INS-1E survival protection against cytokine death – cell-based, luminescence, retest, dose response (AID 449756);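 also: cell death triggered by IL-1 beta plus TNF-alpha plus IFN-gamma mixture; protective hits raise ATP signal compared with cytokine alone wells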", "format": "functional", "conditions": "Rattus norvegicus"}, "[10]": {"assay": "NIH3T3 cell viability loss – ATP luminescence, mouse fibroblasts, counter-screen, dose response (AID 2010);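 also: cells exposed to compound for about 90 hours before reading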", "format": "functional, cell-based"}, "[11]": {"assay": "cells", "format": "functional, cell-based", "remark": "listed apart in the source"}, "[12]": {"target": "T3, Replicative DNA helicase DnaB (Mycobacterium tuberculosis, UniProt P9WMR3)", "T3 sequence (P9WMR3 whole entry)": "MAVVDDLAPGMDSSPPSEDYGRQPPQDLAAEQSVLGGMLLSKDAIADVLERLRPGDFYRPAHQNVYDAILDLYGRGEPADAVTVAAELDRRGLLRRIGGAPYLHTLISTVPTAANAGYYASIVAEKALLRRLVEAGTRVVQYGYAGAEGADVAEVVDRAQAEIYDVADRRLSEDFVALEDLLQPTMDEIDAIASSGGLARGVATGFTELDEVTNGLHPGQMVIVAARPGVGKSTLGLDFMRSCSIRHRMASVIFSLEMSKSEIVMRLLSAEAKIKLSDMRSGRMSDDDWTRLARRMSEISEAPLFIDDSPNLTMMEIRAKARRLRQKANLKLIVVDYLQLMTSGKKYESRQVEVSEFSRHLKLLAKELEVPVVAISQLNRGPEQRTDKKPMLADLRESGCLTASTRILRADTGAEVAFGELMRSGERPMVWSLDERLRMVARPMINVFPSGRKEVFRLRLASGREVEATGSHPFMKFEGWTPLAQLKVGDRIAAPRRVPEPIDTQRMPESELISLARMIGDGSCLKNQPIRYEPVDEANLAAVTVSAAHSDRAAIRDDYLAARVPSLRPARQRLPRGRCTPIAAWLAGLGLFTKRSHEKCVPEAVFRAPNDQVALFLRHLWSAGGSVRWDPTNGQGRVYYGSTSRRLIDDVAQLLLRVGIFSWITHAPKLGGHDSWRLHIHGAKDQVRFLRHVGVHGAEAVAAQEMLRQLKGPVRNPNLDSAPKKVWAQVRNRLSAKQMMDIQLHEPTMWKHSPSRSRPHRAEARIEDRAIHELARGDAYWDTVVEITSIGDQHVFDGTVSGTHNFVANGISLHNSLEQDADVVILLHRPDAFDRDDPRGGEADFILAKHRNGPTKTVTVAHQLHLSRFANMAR", "assay": "DnaB intein splicing inhibitors, dose response, biochemical, cell-free fluorescence (AID 449749)", "format": "functional"}, "[13]": {"target": "T4, Protein RecA (Mycobacterium tuberculosis, UniProt P9WHJ3)", "T4 sequence (P9WHJ3 whole entry)": "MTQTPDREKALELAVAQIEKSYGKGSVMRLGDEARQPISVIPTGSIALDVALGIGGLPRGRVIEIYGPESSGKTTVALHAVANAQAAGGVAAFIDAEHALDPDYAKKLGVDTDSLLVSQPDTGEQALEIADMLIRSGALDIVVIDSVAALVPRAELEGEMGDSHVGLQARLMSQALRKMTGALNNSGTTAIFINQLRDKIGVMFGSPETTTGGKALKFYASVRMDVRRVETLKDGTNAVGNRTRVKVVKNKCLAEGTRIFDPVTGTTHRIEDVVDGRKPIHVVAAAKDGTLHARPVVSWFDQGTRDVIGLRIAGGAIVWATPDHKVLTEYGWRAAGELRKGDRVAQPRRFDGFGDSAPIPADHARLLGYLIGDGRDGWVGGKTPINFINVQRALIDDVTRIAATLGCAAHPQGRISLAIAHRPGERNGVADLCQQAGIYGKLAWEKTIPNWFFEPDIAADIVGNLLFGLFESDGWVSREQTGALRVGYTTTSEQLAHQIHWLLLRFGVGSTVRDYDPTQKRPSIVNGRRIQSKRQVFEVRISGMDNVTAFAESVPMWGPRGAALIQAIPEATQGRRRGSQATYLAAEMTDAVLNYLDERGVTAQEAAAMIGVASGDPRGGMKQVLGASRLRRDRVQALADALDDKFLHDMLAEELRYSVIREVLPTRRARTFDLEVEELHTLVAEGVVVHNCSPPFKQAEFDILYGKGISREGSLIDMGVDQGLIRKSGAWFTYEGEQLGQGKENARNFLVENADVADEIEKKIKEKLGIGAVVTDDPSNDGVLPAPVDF", "assay": "Fluorescence Cell-Free Homogeneous Dose Retest to Identify Inhibitors of RecA-Intein Splicing Activity. [Related pubchem assays (depositor defined):AID2097, AID2223, AID489010, AID492950]", "format": "functional"}},
  "note": "The source made the active and inactive calls. Rule as the data show it, for most assays here: actives have a measured EC50 and inactives only a lower limit.",
  "data": [
    {"smiles": "COc1ccc(-c2csc(NC(=O)c3ccccc3Br)c2C(=O)O)cc1", "values": [
      {"measurement": "IC50", "setting": "[1]", "value": "74.4 µM (active)"}
    ]},
    {"smiles": "O=C(O)c1cccc(Nc2nc3ccccc3nc2NS(=O)(=O)c2cccs2)c1", "values": [
      {"measurement": "IC50", "setting": "[1]", "value": "66.3 µM (active)"}
    ]},
    {"smiles": "O=S(=O)([O-])CCC[n+]1c(SCCCS(=O)(=O)O)sc2ccc(Cl)cc21", "values": [
      {"measurement": "IC50", "setting": "[1]", "value": "> 100 µM (active)"}
    ]},
    {"smiles": "CN1C(=O)C2(c3ccccc31)N(C)CC(c1ccccn1)C21SC(=S)N(Cc2ccco2)C1=O", "note": "(stereo unspecified)", "values": [
      {"measurement": "EC50", "setting": "[2]", "value": "> 260 µM (inactive)"}
    ]},
    {"smiles": "O=C1NC[C@@H](c2ccccc2)OC(=O)[C@H](Cc2ccc(F)cc2)CC/C=C/C[C@H]1CC(=O)N(CCO)Cc1ccccc1", "values": [
      {"measurement": "EC50", "setting": "[3]", "value": "> 53 µM (inactive)"}
    ]},
    {"smiles": "CC1(Cc2ccc(OC(F)(F)F)cc2)C(=O)Nc2c(Cl)ccc(Cl)c21", "note": "(stereo unspecified)", "values": [
      {"measurement": "AC50", "setting": "[4]", "value": "25.7 µM (active)"}
    ]},
    {"smiles": "CN(C)S(=O)(=O)c1cccc(NC(=S)N/N=C/c2cc(Br)ccc2O)c1", "values": [
      {"measurement": "EC50", "setting": "[5]", "value": "> 150 µM (inactive)"},
      {"measurement": "EC50", "setting": "[6]", "value": "7.76 µM (active)"},
      {"measurement": "EC50", "setting": "[7]", "value": "2.27 µM (active)"},
      {"measurement": "EC50", "setting": "[8]", "value": "2.83 µM (active)"},
      {"measurement": "AC50", "setting": "[9]", "value": "0.481 µM (active)"},
      {"measurement": "EC50", "setting": "[10]", "value": "> 60 µM (not active)"},
      {"measurement": "EC50", "setting": "[11]", "value": "> 350 µM (not active)"}
    ]},
    {"smiles": "O=C1CSC(=S)N1N=Cc1c(F)cccc1Cl", "values": [
      {"measurement": "EC50", "setting": "[3]", "value": "> 53 µM (inactive)"}
    ]},
    {"smiles": "CSCCC(NC(=O)c1ccccc1)C(=O)N/N=C(\\C)c1ccccc1", "note": "(stereo unspecified)", "values": [
      {"measurement": "EC50", "setting": "[3]", "value": "7.06 µM (active)"}
    ]},
    {"smiles": "COc1ccc(C(O)c2nccc3cc(OC)c(OC)cc23)cc1OC", "note": "(stereo unspecified)", "values": [
      {"measurement": "AC50", "setting": "[12]", "value": "3.56 µM (active)"},
      {"measurement": "EC50", "setting": "[13]", "value": "10.7 µM (active)"}
    ]},
    {"smiles": "COc1ccc(C(=O)NN/C(C)=C/C(=O)C(F)(F)C(F)(F)C(F)(F)F)cc1", "values": [
      {"measurement": "EC50", "setting": "[5]", "value": "47.2 µM (active)"},
      {"measurement": "EC50", "setting": "[8]", "value": "0.384 µM (active)"},
      {"measurement": "AC50", "setting": "[9]", "value": "32.5 µM (active)"}
    ]},
    {"smiles": "C=CCC1=C/C(=C\\c2c(N)n3nc(CC(=O)N4CCCC4)sc3nc2=O)C=C(OC)C1=O", "values": [
      {"measurement": "EC50", "setting": "[3]", "value": "10.6 µM (active)"}
    ]}
  ]
}
